{
  "source": "ChEMBL document CHEMBL4706484",
  "about": "“Apigenin-rivastigmine hybrids as multi-target-directed liagnds for the treatment of Alzheimer's disease” (Eur J Med Chem, 2020)",
  "key": {"Danio rerio [1]": {"species_on_record": "Danio rerio", "assay": "Antialzheimer activity against 3 dpf zebrafish model of AlCl3-induced AD assessed as efficacy on motility distance at 1.4 ug/ml relative to control", "format": "functional", "settings": "dose 1.4 µg/ml"}, "SH-SY5Y [2]": {"tested_on": "SH-SY5Y", "assay": "Neuroprotective activity against amyloid beta (1 to 42 residues)-induced cell injury in human SH-SY5Y cells assessed as cell viability at 5 uM preincubated for 2 hrs followed by H2O2 addition and measured after 24 hrs by MTT assay (reference value: 52.3 %)", "format": "functional", "settings": "time 26 hrs, read-out: Activity"}, "[3]": {"assay": "Acute toxicity in 2 dpf zebrafish assessed as absent blood flow at 1.39 to 12.5 ug/ml measured after 3 days", "format": "tissue-based, Danio rerio", "settings": "72 h, dose 1.39-12.5 µg/ml, time 3 day"}, "PC-12 [4]": {"tested_on": "PC-12", "assay": "Neuroprotective activity against H2O2-induced cell injury in rat PC-12 cells assessed as cell viability at 5 uM preincubated for 2 hrs followed by H2O2 addition and measured after 24 hrs by MTT assay (reference value: 53.8 %)", "format": "functional", "settings": "time 26 hrs, read-out: Activity"}, "Danio rerio [5]": {"species_on_record": "Danio rerio", "assay": "Protection against amyloid beta (1 to 40 residues)-induced vascular injury in transgenic zebrafish assessed as vascular injury rate at 4.2 ug/ml (reference value: 73.3 %)", "format": "functional", "settings": "dose 4.2 µg/ml"}, "[6]": {"assay": "Drug metabolism in rat intestine assessed as metabolite formation by UPLC-MS/MS analysis", "format": "ADME, tissue-based"}, "[7]": {"assay": "Acute toxicity in 2 dpf zebrafish assessed as short or misshapen jaw at 1.39 to 12.5 ug/ml measured after 3 days", "parameters": "species or system Danio rerio", "settings": "in vivo, 72 h, dose 1.39-12.5 µg/ml, time 3 day"}, "[8]": {"assay": "Acute toxicity in 2 dpf zebrafish assessed as abnormal intestine at 1.39 to 12.5 ug/ml measured after 3 days", "format": "tissue-based, Danio rerio", "settings": "in vivo, 72 h, dose 1.39-12.5 µg/ml, time 3 day"}, "[9]": {"assay": "Metal chelating activity assessed as compound-Cu2+ complex stoichiometry ratio of 1:1 at 37.5 uM in presence of CuCl2 by UV-visible spectrophotometric analysis"}, "[10]": {"assay": "Toxicity in 3 dpf zebrafish model of AlCl3-induced AD at 12.5 to 200 microg/ml", "parameters": "species or system Danio rerio", "settings": "in vivo, dose 12.5-200 µg/ml"}, "[11]": {"assay": "Cytotoxicity against human L02 cells assessed as cell viability at 50 uM measured after 72 hrs by MTT assay relative to control", "format": "cell-based", "settings": "read-out: Activity"}, "Danio rerio [12]": {"species_on_record": "Danio rerio", "assay": "Antialzheimer activity against 3 dpf zebrafish model of AlCl3-induced AD assessed as change in motility distance at 12.5 ug/ml (reference value: 5204 mm)", "format": "functional", "settings": "dose 12.5 µg/ml"}, "Cholinesterase [13]": {"molecular_target": "T1, Cholinesterase (Homo sapiens, UniProt P06276)", "T1 sequence (P06276 whole entry)": "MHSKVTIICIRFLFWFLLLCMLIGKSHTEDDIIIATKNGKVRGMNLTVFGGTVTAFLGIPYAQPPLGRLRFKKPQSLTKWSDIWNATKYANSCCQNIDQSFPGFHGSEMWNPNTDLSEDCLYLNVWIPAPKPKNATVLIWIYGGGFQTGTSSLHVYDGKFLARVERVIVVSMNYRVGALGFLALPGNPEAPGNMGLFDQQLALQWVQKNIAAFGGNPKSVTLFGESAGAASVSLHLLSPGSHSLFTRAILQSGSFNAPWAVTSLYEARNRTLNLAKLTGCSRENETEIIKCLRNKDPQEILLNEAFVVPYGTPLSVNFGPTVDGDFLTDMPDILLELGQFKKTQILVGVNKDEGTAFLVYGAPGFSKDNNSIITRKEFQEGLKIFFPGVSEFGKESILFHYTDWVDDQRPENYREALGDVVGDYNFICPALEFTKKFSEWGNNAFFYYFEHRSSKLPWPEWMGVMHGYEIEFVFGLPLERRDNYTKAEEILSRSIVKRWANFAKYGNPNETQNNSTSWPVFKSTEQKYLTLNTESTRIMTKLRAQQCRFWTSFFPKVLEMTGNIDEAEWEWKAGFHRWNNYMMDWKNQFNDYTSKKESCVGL", "assay": "Pseudo-irreversible inhibition of human serum BChE assessed as enzyme recovery activity at 0.1 times IC50 using diluted compound relative to control", "format": "cell-free", "parameters": "scale not given: the % may be the effect or the level left"}, "[14]": {"assay": "Acute toxicity in 2 dpf zebrafish assessed as yolk sac absorption delay at 4.17 ug/ml measured after 3 days relative to control", "parameters": "species or system Danio rerio", "settings": "in vivo, 72 h, at 4.17 µg/mL, time 3 day"}, "[15]": {"assay": "Cytotoxicity against human L02 cells assessed as cell viability at 25 uM measured after 72 hrs by MTT assay relative to control", "format": "cell-based", "settings": "read-out: Activity"}, "SH-SY5Y [16]": {"tested_on": "SH-SY5Y", "assay": "Neuroprotective activity against amyloid beta (1 to 42 residues)-induced cell injury in human SH-SY5Y cells assessed as cell viability at 10 uM preincubated for 2 hrs followed by H2O2 addition and measured after 24 hrs by MTT assay (reference value: 52.3 %)", "format": "functional", "settings": "time 26 hrs, read-out: Activity"}, "L02": {"tested_on": "L02", "assay": "Hepatoprotective activity H2O2-induced cell injury in human L02 cells assessed as cell viability at 10 uM measured after 48 hrs by MTT assay (reference value: 56.89 %)", "format": "functional", "settings": "read-out: Activity"}, "Danio rerio [17]": {"species_on_record": "Danio rerio", "assay": "Antialzheimer activity against 3 dpf zebrafish model of AlCl3-induced AD assessed as change in motility distance at 1.4 ug/ml (reference value: 5204 mm)", "format": "functional", "settings": "dose 1.4 µg/ml"}, "[18]": {"molecular_target": "Amyloid-beta precursor protein (Homo sapiens) (UniProt P05067)", "sequence (P05067 whole entry)": "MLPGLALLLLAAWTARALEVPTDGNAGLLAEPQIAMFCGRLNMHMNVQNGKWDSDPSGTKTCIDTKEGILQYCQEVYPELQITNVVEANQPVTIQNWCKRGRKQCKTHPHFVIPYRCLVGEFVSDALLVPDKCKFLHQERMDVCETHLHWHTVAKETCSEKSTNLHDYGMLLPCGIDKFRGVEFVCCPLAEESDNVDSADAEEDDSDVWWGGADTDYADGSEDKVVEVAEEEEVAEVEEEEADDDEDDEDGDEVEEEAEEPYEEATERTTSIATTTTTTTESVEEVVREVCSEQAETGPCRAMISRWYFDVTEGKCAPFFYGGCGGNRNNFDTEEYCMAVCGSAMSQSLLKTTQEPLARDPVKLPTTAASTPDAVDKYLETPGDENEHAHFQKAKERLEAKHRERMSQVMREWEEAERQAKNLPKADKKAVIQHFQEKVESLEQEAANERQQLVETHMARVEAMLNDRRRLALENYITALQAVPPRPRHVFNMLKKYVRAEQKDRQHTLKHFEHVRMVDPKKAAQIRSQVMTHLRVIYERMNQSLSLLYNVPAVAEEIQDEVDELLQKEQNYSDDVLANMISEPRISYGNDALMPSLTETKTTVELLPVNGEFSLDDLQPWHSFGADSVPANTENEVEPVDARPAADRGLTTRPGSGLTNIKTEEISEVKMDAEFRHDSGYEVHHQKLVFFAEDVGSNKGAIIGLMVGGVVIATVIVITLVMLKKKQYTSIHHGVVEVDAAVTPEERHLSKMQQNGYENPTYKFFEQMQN", "assay": "Disaggregation of self-induced amyloid beta (1 to 42) (unknown origin) preformed fibrils at 25 uM measured after 48 hrs by TEM analysis"}, "[19]": {"assay": "Permeability of the compound in PBS/EtOH (70:30) at 100 ug/ml by PAMPA-BBB assay", "format": "ADME", "settings": "dose 100 µg/ml, read-out: permeability"}, "Mus musculus [20]": {"tested_on": "Mus musculus", "assay": "Antialzheimer activity in scopolamine-induced Kunming mouse model of memory impairment assessed as total mapped in brain hippocampus at 10 mg/kg by illumina sequencing method (reference value: 97.13 %)", "format": "functional"}, "Acetylcholinesterase": {"molecular_target": "Acetylcholinesterase (Homo sapiens, UniProt P22303)", "sequence (P22303 whole entry)": "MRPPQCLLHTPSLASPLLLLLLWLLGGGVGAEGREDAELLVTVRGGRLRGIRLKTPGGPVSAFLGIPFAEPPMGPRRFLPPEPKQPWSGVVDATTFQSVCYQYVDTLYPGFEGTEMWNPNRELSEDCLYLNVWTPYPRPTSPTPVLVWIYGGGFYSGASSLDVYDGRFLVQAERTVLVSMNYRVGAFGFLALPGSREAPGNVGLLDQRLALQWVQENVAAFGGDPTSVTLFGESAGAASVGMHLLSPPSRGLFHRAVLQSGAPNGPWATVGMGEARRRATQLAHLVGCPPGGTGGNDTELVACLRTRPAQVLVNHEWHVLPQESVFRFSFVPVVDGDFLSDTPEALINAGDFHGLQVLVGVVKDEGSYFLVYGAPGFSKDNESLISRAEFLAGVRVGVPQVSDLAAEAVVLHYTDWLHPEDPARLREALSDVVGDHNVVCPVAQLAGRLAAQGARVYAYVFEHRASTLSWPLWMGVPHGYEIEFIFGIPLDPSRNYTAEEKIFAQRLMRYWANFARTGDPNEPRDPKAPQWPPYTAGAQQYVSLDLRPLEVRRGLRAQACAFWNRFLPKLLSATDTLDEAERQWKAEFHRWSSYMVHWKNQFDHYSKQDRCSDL", "assay": "Inhibition of human erythrocytes AChE using acetylthiocholine iodide as substrate measured after 15 mins by Ellman's method", "format": "tissue-based, Erythrocyte"}, "Danio rerio [21]": {"species_on_record": "Danio rerio", "assay": "Antialzheimer activity against 3 dpf zebrafish model of AlCl3-induced AD assessed as motility by measuring change in speed at 12.5 ug/ml (reference value: 1.05 mm/s)", "format": "functional", "settings": "dose 12.5 µg/ml"}, "Danio rerio [22]": {"species_on_record": "Danio rerio", "assay": "Antialzheimer activity against 3 dpf zebrafish model of AlCl3-induced AD assessed as efficacy on motility distance at 4.2 ug/ml relative to control", "format": "functional", "settings": "dose 4.2 µg/ml"}, "Danio rerio [23]": {"species_on_record": "Danio rerio", "assay": "Protection against amyloid beta (1 to 40 residues)-induced vascular injury in transgenic zebrafish assessed as vascular injury rate at 12.5 ug/ml (reference value: 73.3 %)", "format": "functional", "settings": "dose 12.5 µg/ml"}, "Danio rerio [24]": {"species_on_record": "Danio rerio", "assay": "Protection against amyloid beta (1 to 40 residues)-induced vascular injury in transgenic zebrafish assessed as efficacy on motility at 12.5 ug/ml relative to control", "format": "functional", "settings": "dose 12.5 µg/ml"}, "[25]": {"assay": "Acute toxicity in Kunming mouse assessed as dispirited at 2000 mg/kg", "format": "organism-based", "settings": "in vivo"}, "Mus musculus [26]": {"tested_on": "Mus musculus", "assay": "Antialzheimer activity in scopolamine-induced Kunming mouse model of memory impairment assessed as uniquely mapped in brain hippocampus at 10 mg/kg by illumina sequencing method (reference value: 94.54 %)", "format": "functional"}, "Danio rerio [27]": {"species_on_record": "Danio rerio", "assay": "Antialzheimer activity against 3 dpf zebrafish model of AlCl3-induced AD assessed as change in motility distance at 4.2 ug/ml (reference value: 5204 mm)", "format": "functional", "settings": "dose 4.2 µg/ml"}, "[28]": {"molecular_target": "Amyloid-beta precursor protein (Homo sapiens) (UniProt P05067)", "assay": "Disaggregation of self-induced amyloid beta (1 to 42) (unknown origin) preformed fibrils at 25 uM by ThT fluorescence assay relative to control"}, "[29]": {"assay": "Acute toxicity in 2 dpf zebrafish assessed as kidney edema at 1.39 to 12.5 ug/ml measured after 3 days", "parameters": "species or system Danio rerio", "settings": "in vivo, 72 h, dose 1.39-12.5 µg/ml, time 3 day"}, "[30]": {"assay": "Disaggregation of Copper-induced amyloid beta (1 to 42) (unknown origin) preformed fibrils at 25 uM by ThT fluorescence assay relative to control"}, "[31]": {"assay": "Acute toxicity in 2 dpf zebrafish assessed as slow blood flow at 1.39 to 12.5 ug/ml measured after 3 days", "format": "tissue-based, Danio rerio", "settings": "72 h, dose 1.39-12.5 µg/ml, time 3 day"}, "Mus musculus [32]": {"tested_on": "Mus musculus", "assay": "Reversal of scopolamine-induced Kunming mouse model of memory impairment assessed as spontaneous alteration at 20 mg/kg by Y-maze test (reference value: 41.6 %)", "format": "functional"}, "Mus musculus [33]": {"tested_on": "Mus musculus", "assay": "Antialzheimer activity in scopolamine-induced Kunming mouse model of memory impairment assessed as GC bases ratio (QC data) in brain hippocampus at 10 mg/kg by illumina sequencing method (reference value: 53.64 %)", "format": "functional"}, "Cholinesterase [34]": {"molecular_target": "T1, Cholinesterase", "assay": "Pseudo-irreversible inhibition of human serum BChE assessed as enzyme recovery activity at 0.1 times IC50 measured immediately using diluted compound", "format": "cell-free", "parameters": "scale not given: the % may be the effect or the level left"}, "PC-12 [35]": {"tested_on": "PC-12", "assay": "Cytotoxicity against rat PC-12 cells assessed as reduction in cell viability <= 100 uM measured after 48 hrs by MTT assay", "format": "cell-based", "settings": "pc-12, 48 h"}},
  "note": "The source made the active and inactive calls. The calls are words filed in the database; no cut-off is given here.",
  "data": [
    {"smiles": "CCN(C)C(=O)Oc1ccc(-c2cc(=O)c3c(O)cc(OC(=O)N(C)CC)cc3o2)cc1", "values": [
      {"measurement": "Efficacy", "setting": "Danio rerio [1]", "result": 59, "unit": "%"},
      {"measurement": "viability at 5 µM", "setting": "SH-SY5Y [2]", "result": 63.9, "unit": "%"},
      {"measurement": "Activity", "setting": "[3]", "result": "Non-Toxic"},
      {"measurement": "viability at 5 µM", "setting": "PC-12 [4]", "result": 68.6, "unit": "%"},
      {"measurement": "Activity", "setting": "Danio rerio [5]", "result": 53, "unit": "%"},
      {"measurement": "Drug metabolism", "setting": "[6]", "result": "Metabolite_Detected"},
      {"measurement": "Activity", "setting": "[7]", "result": "Non-Toxic"},
      {"measurement": "Activity", "setting": "[8]", "result": "Non-Toxic"},
      {"measurement": "Activity", "setting": "[9]", "result": "Active"},
      {"measurement": "Activity", "setting": "[10]", "result": "Non-Toxic"},
      {"measurement": "viability at 72 h, 50 µM", "setting": "[11]", "result": 59.7, "unit": "%"},
      {"measurement": "Activity", "setting": "Danio rerio [12]", "result": 6733, "unit": "mm"},
      {"measurement": "Activity", "setting": "Cholinesterase [13]", "result": 44.8, "unit": "%"},
      {"measurement": "Activity", "setting": "[14]", "result": 33.3, "unit": "%"},
      {"measurement": "viability at 72 h, 25 µM", "setting": "[15]", "result": 83.9, "unit": "%"},
      {"measurement": "viability at 10 µM", "setting": "SH-SY5Y [16]", "result": 72.3, "unit": "%"},
      {"measurement": "viability at 10 µM", "setting": "L02", "result": 75.6, "unit": "%"},
      {"measurement": "Activity", "setting": "Danio rerio [17]", "result": 6432, "unit": "mm"},
      {"measurement": "Activity", "setting": "[18]", "result": "Active"},
      {"measurement": "Papp at 100 ug/ml", "setting": "[19]", "result": 15.5, "unit": "×10⁻⁶ cm/s"},
      {"measurement": "Activity", "setting": "Mus musculus [20]", "result": 96.87, "unit": "%"},
      {"measurement": "IC50", "setting": "Acetylcholinesterase", "result": 6.8, "unit": "µM"},
      {"measurement": "Activity", "setting": "Danio rerio [21]", "result": 2.17, "unit": "millimeter/sec"},
      {"measurement": "Efficacy", "setting": "Danio rerio [22]", "result": 65, "unit": "%"},
      {"measurement": "Activity", "setting": "Danio rerio [23]", "result": 27, "unit": "%"},
      {"measurement": "Efficacy", "setting": "Danio rerio [24]", "result": 64, "unit": "%"},
      {"measurement": "Activity", "setting": "[25]", "result": "Toxic"},
      {"measurement": "Activity", "setting": "Mus musculus [26]", "result": 93.76, "unit": "%"},
      {"measurement": "Activity", "setting": "Danio rerio [27]", "result": 6562, "unit": "mm"},
      {"measurement": "Activity", "setting": "[28]", "result": 66.2, "unit": "%"},
      {"measurement": "Activity", "setting": "[29]", "result": "Non-Toxic"},
      {"measurement": "Activity", "setting": "[30]", "result": 64.6, "unit": "%"},
      {"measurement": "Activity", "setting": "[31]", "result": "Non-Toxic"},
      {"measurement": "Activity", "setting": "Mus musculus [32]", "result": 57.1, "unit": "%"},
      {"measurement": "Activity", "setting": "Mus musculus [33]", "result": 60.72, "unit": "%"},
      {"measurement": "Activity", "setting": "Cholinesterase [34]", "result": 44.8, "unit": "%"},
      {"measurement": "Activity", "setting": "PC-12 [35]", "result": "Non-Toxic"}
    ]}
  ]
}
